These are literature values, as cited in patent US20240298642A1, “Herbicidal Compositions Comprising Fluazifop And Triclopyr” (Bayer CropScience LP, priority 2023, published 2024).

The conditions of the data set: neat solvent.

`CCCCCCO` [Composition 1-hexanol, 1-hexanol]: the flash point is 65 °C.

Turning to `CCCCCCCCO` [Composition 1-octanol, 1-octanol], the flash point was 81 °C.
